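Five compound concentrations were applied to cells in 96-well plates for 48 hours; endpoints were derived by simple linear interpolation of the resulting dose-response curve. Here, GI50 denotes the concentration required for 50% inhibition of growth.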 Active and inactive are the calls of the source. Rule as the data show it: active = GI50 up to about 1.1 µM and inactive = higher.
Columns and labels:
Assay in all cases: DTP human tumour cell line panel, 48 h
A549 = system: A549
DU-145 = system: DU-145
Hs-578T = system: Hs-578T
SNB-19 = system: SNB-19
HT-29 = system: HT-29
HOP-92 = system: HOP-92
NCI-H522 = system: NCI-H522
LOX IMVI = system: LOX IMVI
RPMI-8226 = system: RPMI-8226
U-251 = system: U-251
NCI-H23 = system: NCI-H23
HOP-62 = system: HOP-62
Malme-3M = system: Malme-3M
M14 = system: M14
SNB-75 = system: SNB-75
MDA-MB-435 = system: MDA-MB-435
786-0 = system: 786-0
NCI-H226 = system: NCI-H226
MDA-N = system: MDA-N
DMS-114 = system: DMS-114

COc1cc2ncnc(Nc3cccc(Br)c3)c2cc1OC
GI50 (A549): 7.6 µM (inactive)
GI50 (DU-145): 0.0741 µM (active)
GI50 (Hs-578T): 4.44 µM (inactive)
GI50 (SNB-19): 15.2 µM (inactive)
GI50 (HT-29): 3.83 µM (inactive)
GI50 (HOP-92): 3.97 µM (inactive)
GI50 (NCI-H522): 0.338 µM (active)
GI50 (LOX IMVI): 3.1 µM (inactive)
GI50 (RPMI-8226): 34.1 µM (inactive)
GI50 (U-251): 7.06 µM (inactive)
GI50 (NCI-H23): 12.5 µM (inactive)
GI50 (HOP-62): 10.4 µM (inactive)
GI50 (Malme-3M): 7.36 µM (inactive)
GI50 (M14): 3.79 µM (inactive)
GI50 (SNB-75): 3.05 µM (inactive)
GI50 (MDA-MB-435): 7.48 µM (inactive)
GI50 (786-0): 2.11 µM (inactive)
GI50 (NCI-H226): 3.25 µM (inactive)
GI50 (MDA-N): 7.26 µM (inactive)

NC(=O)COc1c(Br)cc(Br)cc1Br
GI50 (A549): > 100 µM (inactive)
GI50 (DMS-114): > 100 µM (inactive)
GI50 (SNB-19): > 100 µM (inactive)
GI50 (HT-29): > 100 µM (inactive)
GI50 (NCI-H522): > 100 µM (inactive)
GI50 (RPMI-8226): > 100 µM (inactive)
GI50 (U-251): > 100 µM (inactive)
GI50 (NCI-H23): > 100 µM (inactive)
GI50 (HOP-62): > 100 µM (inactive)
GI50 (Malme-3M): > 100 µM (inactive)
GI50 (M14): > 100 µM (inactive)
GI50 (SNB-75): > 100 µM (inactive)
GI50 (786-0): > 100 µM (inactive)
GI50 (NCI-H226): > 100 µM (inactive)

Cc1cc2c(=O)cc(-c3ccc(Cl)c(Cl)c3)oc2c(C(=O)O)c1C
GI50 (A549): > 100 µM (inactive)
GI50 (DMS-114): > 100 µM (inactive)
GI50 (SNB-19): > 100 µM (inactive)
GI50 (HT-29): > 100 µM (inactive)
GI50 (NCI-H522): > 100 µM (inactive)
GI50 (LOX IMVI): > 100 µM (inactive)
GI50 (RPMI-8226): > 100 µM (inactive)
GI50 (U-251): > 100 µM (inactive)
GI50 (NCI-H23): > 100 µM (inactive)
GI50 (Malme-3M): > 100 µM (inactive)
GI50 (M14): > 100 µM (inactive)
GI50 (SNB-75): 92.3 µM (inactive)
GI50 (786-0): > 100 µM (inactive)
GI50 (NCI-H226): > 100 µM (inactive)

CCOC(=O)C(C)(c1cn(C)c2ccccc12)c1cn(C)c2ccccc12
GI50 (A549): 81.5 µM (inactive)
GI50 (DMS-114): 79.6 µM (inactive)
GI50 (HT-29): > 100 µM (inactive)
GI50 (RPMI-8226): > 100 µM (inactive)
GI50 (U-251): 57.5 µM (inactive)
GI50 (NCI-H23): 44.7 µM (inactive)
GI50 (HOP-62): 76.2 µM (inactive)
GI50 (Malme-3M): 67.3 µM (inactive)
GI50 (M14): > 100 µM (inactive)
GI50 (SNB-75): 19 µM (inactive)
GI50 (786-0): 69.2 µM (inactive)
GI50 (NCI-H226): 30.6 µM (inactive)

O=C(NCCc1ccc(F)cc1)c1cc(/C=C/c2cc(O)ccc2O)ccc1O
GI50 (A549): 11.1 µM (inactive)
GI50 (DU-145): 10.3 µM (inactive)
GI50 (Hs-578T): 4.26 µM (inactive)
GI50 (SNB-19): 5.45 µM (inactive)
GI50 (HT-29): 14.4 µM (inactive)
GI50 (HOP-92): 1.85 µM (inactive)
GI50 (NCI-H522): 1.52 µM (inactive)
GI50 (LOX IMVI): 3.38 µM (inactive)
GI50 (RPMI-8226): 3.01 µM (inactive)
GI50 (U-251): 2.1 µM (inactive)
GI50 (NCI-H23): 3.28 µM (inactive)
GI50 (HOP-62): 6.11 µM (inactive)
GI50 (Malme-3M): 2.42 µM (inactive)
GI50 (M14): 3.67 µM (inactive)
GI50 (SNB-75): 4.57 µM (inactive)
GI50 (MDA-MB-435): 3.78 µM (inactive)
GI50 (786-0): 2.24 µM (inactive)
GI50 (NCI-H226): 8.59 µM (inactive)
GI50 (MDA-N): 3.05 µM (inactive)

COc1ccc2oc3c(OC)c(OC)c(OC)cc3c(=O)c2c1
GI50 (A549): > 100 µM (inactive)
GI50 (DMS-114): > 100 µM (inactive)
GI50 (SNB-19): > 100 µM (inactive)
GI50 (HT-29): > 100 µM (inactive)
GI50 (NCI-H522): 21.8 µM (inactive)
GI50 (LOX IMVI): > 100 µM (inactive)
GI50 (RPMI-8226): > 100 µM (inactive)
GI50 (U-251): 71.6 µM (inactive)
GI50 (NCI-H23): > 100 µM (inactive)
GI50 (HOP-62): 50.2 µM (inactive)
GI50 (Malme-3M): > 100 µM (inactive)
GI50 (M14): > 100 µM (inactive)
GI50 (SNB-75): 24.7 µM (inactive)
GI50 (786-0): > 100 µM (inactive)

CC(=O)Oc1c2ccsc2c(OC(C)=O)c2ccsc12
GI50 (A549): 0.224 µM (active)
GI50 (DU-145): 0.412 µM (active)
GI50 (Hs-578T): 0.354 µM (active)
GI50 (SNB-19): 1.47 µM (inactive)
GI50 (HT-29): 2.12 µM (inactive)
GI50 (HOP-92): 0.577 µM (active)
GI50 (NCI-H522): 0.483 µM (active)
GI50 (LOX IMVI): 0.184 µM (active)
GI50 (RPMI-8226): 6.56 µM (inactive)
GI50 (U-251): 0.869 µM (active)
GI50 (NCI-H23): 0.269 µM (active)
GI50 (HOP-62): 1.27 µM (inactive)
GI50 (Malme-3M): 0.286 µM (active)
GI50 (M14): 0.269 µM (active)
GI50 (SNB-75): 0.286 µM (active)
GI50 (MDA-MB-435): 0.179 µM (active)
GI50 (786-0): 2.62 µM (inactive)
GI50 (NCI-H226): 2.54 µM (inactive)
GI50 (MDA-N): 0.12 µM (active)

O=c1[nH]nc(Cc2ccc(Cl)cc2)n1/N=C\CC/C=N\n1c(Cc2ccc(Cl)cc2)n[nH]c1=O
GI50 (A549): > 100 µM (inactive)
GI50 (DU-145): > 93.1 µM (inactive)
GI50 (Hs-578T): 11.4 µM (inactive)
GI50 (SNB-19): 32.9 µM (inactive)
GI50 (HT-29): > 26.2 µM (inactive)
GI50 (HOP-92): > 55.5 µM (inactive)
GI50 (NCI-H522): 25.1 µM (inactive)
GI50 (LOX IMVI): 13.6 µM (inactive)
GI50 (RPMI-8226): > 33.3 µM (inactive)
GI50 (U-251): 16.4 µM (inactive)
GI50 (NCI-H23): 32.3 µM (inactive)
GI50 (HOP-62): 8.83 µM (inactive)
GI50 (Malme-3M): 24.3 µM (inactive)
GI50 (M14): 32.8 µM (inactive)
GI50 (SNB-75): 7.96 µM (inactive)
GI50 (MDA-MB-435): > 53.6 µM (inactive)
GI50 (786-0): 18.5 µM (inactive)
GI50 (NCI-H226): 18.4 µM (inactive)
GI50 (MDA-N): > 50.9 µM (inactive)
